Bridge positions count the residues as written; N and C are the ends. Ends that are not written are not given here.
B1: [Cys^3]-CGRP (peptide)
chain: ACCTATCVTHRLAGLLSRSGGVVKNNFVPTNVGSKAF-NH2
modifications: disulfide 2-7; N-terminus assumed
SMILES: CC(C)C[C@H](NC(=O)CNC(=O)[C@H](C)NC(=O)[C@H](CC(C)C)NC(=O)[C@H](CCCNC(=N)N)NC(=O)[C@H](Cc1c[nH]cn1)NC(=O)[C@@H](NC(=O)[C@@H](NC(=O)[C@@H]1CSSC[C@H](NC(=O)[C@H](C)N)C(=O)N[C@@H](CS)C(=O)N[C@@H]([C@@H](C)O)C(=O)N[C@@H](C)C(=O)N[C@@H]([C@@H](C)O)C(=O)N1)C(C)C)[C@@H](C)O)C(=O)N[C@@H](CC(C)C)C(=O)N[C@@H](CO)C(=O)N[C@@H](CCCNC(=N)N)C(=O)N[C@@H](CO)C(=O)NCC(=O)NCC(=O)N[C@H](C(=O)N[C@H](C(=O)N[C@@H](CCCCN)C(=O)N[C@@H](CC(N)=O)C(=O)N[C@@H](CC(N)=O)C(=O)N[C@@H](Cc1ccccc1)C(=O)N[C@H](C(=O)N1CCC[C@H]1C(=O)N[C@H](C(=O)N[C@@H](CC(N)=O)C(=O)N[C@H](C(=O)NCC(=O)N[C@@H](CO)C(=O)N[C@@H](CCCCN)C(=O)N[C@@H](C)C(=O)N[C@@H](Cc1ccccc1)C(N)=O)C(C)C)[C@@H](C)O)C(C)C)C(C)C)C(C)C

What was measured:
AMY1(a) receptor = target: T1, AMY1(a) receptor (Homo sapiens, UniProt O60894+P30988); assay: cAMP production in Cos 7 cells via the AMY1(a) receptor; format: cell-based; settings: AlphaScreen, means ± SEM, n = 3–6
T1 construct: HA; expressed in transfected cells; host or cells: Cos 7
Description: SK-N-MC cells were grown in DMEM/F12 medium supplemented with 10% fetal calf serum as described previously (Poyner et al., [1998]). […] Production of cAMP in SK-N-MC cells for all analogues except [[…]]-hαCGRP was by a radioreceptor assay, as described previously (Poyner et al., [1998]). […] For [[…]]-hαCGRP, a different clone of SK-N-MC cells was used and cAMP production was measured via AlphaScreen (Perkin Elmer, Wellesley, MA, USA), as described previously ([…] et al., [2010]). This assay was also used to investigate the action of all derivatives at the AMY1(a) receptor and other experiments using Cos 7 cells. […] GraphPad Prism 5.00 or 6.00 (GraphPad Software Inc., San Diego, CA, USA) was used for data fitting. Concentration-response curves were fitted to a sigmoidal function with Hill slope constrained to unity to obtain pEC50 and maximum responses (Emax) values. Displacement curves were analysed to obtain pIC50 values. Schild plots were fitted by linear regression to obtain slope and intercepts. pEC50 and pIC50 values were compared with that of human αCGRP using Dunnett's test with either a normal or repeated measures one-way ANOVA, as appropriate.

CGRP receptor [1] = target: T2, CGRP receptor (Homo sapiens, UniProt O60894+Q16602); assay: β-arrestin 2 translocation in CHO-K1 cells (PathHunter eXpress); format: cell-based; set-up: host or cells: CHO-K1 (PathHunter eXpress β-arrestin kit)
Description: (§1) GraphPad Prism 5.00 or 6.00 (GraphPad Software Inc., San Diego, CA, USA) was used for data fitting. Concentration–response curves were fitted to a sigmoidal function with Hill slope constrained to unity to obtain pEC50 and maximum responses (Emax) values. Displacement curves were analysed to obtain pIC50 values. Schild plots were fitted by linear regression to obtain slope and intercepts. pEC50 and pIC50 values were compared with that of human αCGRP using Dunnett's test with either a normal or repeated measures one-way ANOVA, as appropriate.

CGRP receptor [2] = target: T2, CGRP receptor; assay: Displacement of 125I-CGRP binding to SK-N-MC cell membranes; set-up: relative expression levels of the receptors (endogenous vs. overexpressed); endogenous in cells; host or cells: SK-N-MC cells (ECACC clone; ATCC clone for [Cys5]-CGRP); settings: Binding (SK-N-MC) pKi CGRP analogue, 125I-CGRP displacement, SK-N-MC cell membranes; means ± SEM, n = 3–6; [Cys5] on a different batch of SK-N-MC cells
Description: as §1

CGRP receptor [3] = target: T2, CGRP receptor; assay: cAMP production in SK-N-MC cells; format: cell-based; set-up: relative expression levels of the receptors (endogenous vs. overexpressed); endogenous in cells; host or cells: SK-N-MC cells (ECACC clone; ATCC clone for [Cys5]-CGRP); settings: radioreceptor assay, approx. 10 min, means ± SEM, n = 3–6
Description: Production of cAMP in SK-N-MC cells for all analogues except [[…]]-hαCGRP was by a radioreceptor assay, as described previously (Poyner et al., [1998]). […] For [[…]]-hαCGRP, a different clone of SK-N-MC cells was used and cAMP production was measured via AlphaScreen (Perkin Elmer, Wellesley, MA, USA), as described previously ([…] et al., [2010]). This assay was also used to investigate the action of all derivatives at the AMY1(a) receptor and other experiments using Cos 7 cells. […] GraphPad Prism 5.00 or 6.00 (GraphPad Software Inc., San Diego, CA, USA) was used for data fitting. Concentration-response curves were fitted to a sigmoidal function with Hill slope constrained to unity to obtain pEC50 and maximum responses (Emax) values. Displacement curves were analysed to obtain pIC50 values. Schild plots were fitted by linear regression to obtain slope and intercepts. pEC50 and pIC50 values were compared with that of human αCGRP using Dunnett's test with either a normal or repeated measures one-way ANOVA, as appropriate.

[4] = target: AMY_(1(a)) receptor (human HA-tagged CT (a) receptor with human myc-tagged RAMP1) (human) (UniProt O60894)
[5] = target: T3, CGRP receptor (calcitonin receptor-like receptor in complex with receptor activity-modifying protein 1) (human (endogenous in SK-N-MC), UniProt Q16602 23-461; O60894 27-148); assay: cell-based or functional assay
[6] = target: T3, CGRP receptor (calcitonin receptor-like …); assay: radioligand binding; displacement of ^125I-CGRP from SK-N-MC cell membranes by unlabelled peptides, microcentrifugation-based binding assay; [Cys^5]-CGRP and its control on another batch of SK-N-MC cells; settings: one partner purified
[7] = 2 h stimulation, means ± SEM, n = 3

T3 sequence (Q16602 23-461, chain 1 of 2): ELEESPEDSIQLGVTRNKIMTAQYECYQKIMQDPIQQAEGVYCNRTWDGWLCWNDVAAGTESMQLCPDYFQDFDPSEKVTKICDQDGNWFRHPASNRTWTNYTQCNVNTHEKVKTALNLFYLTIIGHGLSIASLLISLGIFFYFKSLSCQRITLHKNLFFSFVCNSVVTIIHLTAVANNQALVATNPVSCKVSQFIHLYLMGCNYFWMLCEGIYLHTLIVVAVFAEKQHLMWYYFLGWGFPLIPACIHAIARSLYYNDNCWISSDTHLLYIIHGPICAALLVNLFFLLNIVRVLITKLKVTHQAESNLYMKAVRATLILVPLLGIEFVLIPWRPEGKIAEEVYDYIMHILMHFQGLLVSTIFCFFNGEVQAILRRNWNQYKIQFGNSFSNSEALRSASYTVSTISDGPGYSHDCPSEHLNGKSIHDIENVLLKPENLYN
T3 sequence (O60894 27-148, chain 2 of 2): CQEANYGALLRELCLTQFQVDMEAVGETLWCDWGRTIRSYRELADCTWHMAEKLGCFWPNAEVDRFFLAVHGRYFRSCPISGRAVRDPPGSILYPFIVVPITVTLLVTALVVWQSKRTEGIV
T2 sequence (Q16602 23-461): as the sequence (Q16602 23-461, chain 1 of 2) above
T2 sequence (O60894 27-148): as the sequence (O60894 27-148, chain 2 of 2) above
Chain of AMY_(1(a)) receptor (human HA-tagged CT (a) receptor with human myc-tagged RAMP1) (human) (O60894 whole entry, looked up): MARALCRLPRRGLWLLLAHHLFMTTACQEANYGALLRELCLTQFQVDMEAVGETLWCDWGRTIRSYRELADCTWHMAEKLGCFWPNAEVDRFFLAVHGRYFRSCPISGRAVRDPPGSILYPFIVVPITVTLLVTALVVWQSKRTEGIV
T1 sequence (P30988 25-474): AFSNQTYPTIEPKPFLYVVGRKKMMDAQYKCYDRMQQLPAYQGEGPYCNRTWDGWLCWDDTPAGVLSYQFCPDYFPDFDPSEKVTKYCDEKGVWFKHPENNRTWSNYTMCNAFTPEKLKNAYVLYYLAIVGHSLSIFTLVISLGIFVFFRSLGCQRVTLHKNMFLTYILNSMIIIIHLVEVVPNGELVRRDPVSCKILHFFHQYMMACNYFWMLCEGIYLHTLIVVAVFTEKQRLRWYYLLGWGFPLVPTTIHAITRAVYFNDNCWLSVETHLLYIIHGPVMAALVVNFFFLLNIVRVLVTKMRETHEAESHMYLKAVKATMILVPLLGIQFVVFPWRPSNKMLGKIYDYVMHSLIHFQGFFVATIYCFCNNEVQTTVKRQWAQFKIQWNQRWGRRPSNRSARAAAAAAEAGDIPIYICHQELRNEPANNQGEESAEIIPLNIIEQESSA
T1 sequence (O60894 27-148): as the sequence (O60894 27-148, chain 2 of 2) above

AMY1(a) receptor-stimulated cAMP pEC50 CGRP analogue (AMY1(a) receptor)	β-Arrestin (CHO-K1) pEC50 CGRP analogue (CGRP receptor [1]; [7])	Ki (CGRP receptor [2])	cAMP (SK-N-MC) pEC50 CGRP analogue (CGRP receptor [3])	Emax (% CGRP), cAMP production in Cos 7 cells with the AMY (1(a)) receptor [4]	pEC50, cAMP production in Cos 7 cells with the AMY (1(a)) receptor [4]	Emax (% CGRP), cAMP production in SK-N-MC cells [5]	Emax (% CGRP), β-arrestin 2 translocation in CHO-K1 cells expressing the human CGRP receptor [5]	pEC50, cAMP production in SK-N-MC cells [5]	pEC50, β-arrestin 2 translocation in CHO-K1 cells expressing the human CGRP receptor [5]	pKi [6]	also measured	Molecule
Undetectable	Undetectable	17.4 nM	Undetectable	–	–	–	–	–	–	–	–	CC(C)C[C@H](NC(=O)CNC(=O)[C@H](C)NC(=O)[C@H](CC(C)C)NC(=O)[C@H](CCCNC(=N)N)NC(=O)[C@H](Cc1c[nH]cn1)NC(=O)[C@@H](NC(=O)[C@@H](NC(=O)[C@@H]1CSSC[C@H](NC(=O)[C@H](C)N)C(=O)N[C@@H](CC(=O)O)C(=O)N[C@@H]([C@@H](C)O)C(=O)N[C@@H](C)C(=O)N[C@@H](CCCCN)C(=O)N1)C(C)C)[C@@H](C)O)C(=O)N[C@@H](CC(C)C)C(=O)N[C@@H](CO)C(=O)N[C@@H](CCCNC(=N)N)C(=O)N[C@@H](CO)C(=O)NCC(=O)NCC(=O)N[C@H](C(=O)N[C@H](C(=O)N[C@@H](CCCCN)C(=O)N[C@@H](CC(N)=O)C(=O)N[C@@H](CC(N)=O)C(=O)N[C@@H](Cc1ccccc1)C(=O)N[C@H](C(=O)N1CCC[C@H]1C(=O)N[C@H](C(=O)N[C@@H](CC(N)=O)C(=O)N[C@H](C(=O)NCC(=O)N[C@@H](CO)C(=O)N[C@@H](CCCCN)C(=O)N[C@@H](C)C(=O)N[C@@H](Cc1ccccc1)C(N)=O)C(C)C)[C@@H](C)O)C(C)C)C(C)C)C(C)C [[Lys^6]]
Undetectable	Undetectable	31.6 nM	Undetectable	–	–	–	–	–	–	–	–	CC(C)C[C@H](NC(=O)CNC(=O)[C@H](C)NC(=O)[C@H](CC(C)C)NC(=O)[C@H](CCCNC(=N)N)NC(=O)[C@H](Cc1c[nH]cn1)NC(=O)[C@@H](NC(=O)[C@@H](NC(=O)[C@@H]1CSSC[C@H](NC(=O)[C@H](C)N)C(=O)N[C@@H](CC(=O)O)C(=O)N[C@@H]([C@@H](C)O)C(=O)N[C@@H](C)C(=O)N[C@@H](CC(=O)O)C(=O)N1)C(C)C)[C@@H](C)O)C(=O)N[C@@H](CC(C)C)C(=O)N[C@@H](CO)C(=O)N[C@@H](CCCNC(=N)N)C(=O)N[C@@H](CO)C(=O)NCC(=O)NCC(=O)N[C@H](C(=O)N[C@H](C(=O)N[C@@H](CCCCN)C(=O)N[C@@H](CC(N)=O)C(=O)N[C@@H](CC(N)=O)C(=O)N[C@@H](Cc1ccccc1)C(=O)N[C@H](C(=O)N1CCC[C@H]1C(=O)N[C@H](C(=O)N[C@@H](CC(N)=O)C(=O)N[C@H](C(=O)NCC(=O)N[C@@H](CO)C(=O)N[C@@H](CCCCN)C(=O)N[C@@H](C)C(=O)N[C@@H](Cc1ccccc1)C(N)=O)C(C)C)[C@@H](C)O)C(C)C)C(C)C)C(C)C [[Asp^6]]
–	–	0.759 nM	–	–	–	–	–	–	–	–	EC50 (AMY1(a) receptor; AMY1(a) receptor-stimulated cAMP pEC50 CGRP analogue): 0.562 nM; AMY1(a) receptor-stimulated cAMP Emax (% CGRP) CGRP analogue (AMY1(a) receptor): 76 ± 19 % CGRP; β-Arrestin (CHO-K1) Emax (% CGRP) CGRP analogue (CGRP receptor [1]; [7]): 57.3 ± 4.8 % CGRP; Emax (CGRP receptor [1]; CHO-K1, CHO-K1 cells, compared with CGRP, read-out: reduction of Emax, β-arrestin 2 translocation): 40%; EC50 (CGRP receptor [1]; β-Arrestin (CHO-K1) pEC50 CGRP analogue, 2 h stimulation, means ± SEM, n = 3): 8.51 nM; EC50 (CGRP receptor [3]; cAMP (SK-N-MC) pEC50 CGRP analogue): 53.7 nM; cAMP (SK-N-MC) Emax (% CGRP) CGRP analogue (CGRP receptor [3]): 100 ± 10 % CGRP	CC(C)C[C@H](NC(=O)CNC(=O)[C@H](C)NC(=O)[C@H](CC(C)C)NC(=O)[C@H](CCCNC(=N)N)NC(=O)[C@H](Cc1c[nH]cn1)NC(=O)[C@@H](NC(=O)[C@@H](NC(=O)[C@@H]1CSSC[C@H](NC(=O)[C@H](C)N)C(=O)N[C@@H](CC(=O)O)C(=O)N[C@@H]([C@@H](C)O)C(=O)N[C@@H](C)C(=O)N[C@@H](CO)C(=O)N1)C(C)C)[C@@H](C)O)C(=O)N[C@@H](CC(C)C)C(=O)N[C@@H](CO)C(=O)N[C@@H](CCCNC(=N)N)C(=O)N[C@@H](CO)C(=O)NCC(=O)NCC(=O)N[C@H](C(=O)N[C@H](C(=O)N[C@@H](CCCCN)C(=O)N[C@@H](CC(N)=O)C(=O)N[C@@H](CC(N)=O)C(=O)N[C@@H](Cc1ccccc1)C(=O)N[C@H](C(=O)N1CCC[C@H]1C(=O)N[C@H](C(=O)N[C@@H](CC(N)=O)C(=O)N[C@H](C(=O)NCC(=O)N[C@@H](CO)C(=O)N[C@@H](CCCCN)C(=O)N[C@@H](C)C(=O)N[C@@H](Cc1ccccc1)C(N)=O)C(C)C)[C@@H](C)O)C(C)C)C(C)C)C(C)C [[Ser^6]]
–	–	–	–	108 % CGRP	8.9	116 % CGRP	95 % CGRP	8.27	8.43	9.54	–	B1
–	–	–	–	76 % CGRP	9.25	100 % CGRP	57.3 % CGRP	7.27	8.07	9.12	–	ACDTASCVTHRLAGLLSRSGGVVKNNFVPTNVGSKAF-NH2 (disulfide 2-7) [[Ser^6]-CGRP]

Source: article PMC3904261 (British Journal of Pharmacology, 2013)
